Measurements reported in US4013791A, “Peptides having an antihypertensive effect” (Hoechst Aktiengesellschaft, priority 1974, dated 1977).

How the values were obtained:
[1] = system: angiotensin II (AT II); assay: Potency of AT II analogs: inhibition of the increase in blood pressure caused by AT II, with and without infusion of the analog; assay type: in vivo; conditions: for Inhibiting effect in percent, 0.5mcg/kg i.v. AT II: AT II 0.5mcg/kg i.v.; for Inhibiting effect in percent, 1mcg/kg i.v. AT II: AT II 1mcg/kg i.v.; for Inhibiting effect in percent, 2mcg/kg i.v. AT II: AT II 2mcg/kg i.v.
Procedure: (§1) The potency of the AT II analogs is determined by measuring the increase in blood pressure caused by increasing amounts of AT II with and without infusion of the analog to be tested, at different dosages; duration of action is determined on the basis of the time during which a single injection of the analog to be tested is effective under permanent infusion of AT II.

[2] = system: angiotensin II (AT II); assay: Duration of action of a single injection of the analog under permanent infusion of AT II; assay type: in vivo; conditions: single injection 0.1mg/kg i.v. under permanent infusion of AT II
Procedure: as §1

[3] = analog infusion 1 mcg/kg/min i.v.
[4] = analog infusion 5 mcg/kg/min i.v.
[5] = analog infusion 10mcg/kg/min i.v.

Row | Substance | Inhibiting effect in percent, 0.5mcg/kg i.v. AT II [1, 3] [%] | Inhibiting effect in percent, 0.5mcg/kg i.v. AT II [1, 4] [%] | Inhibiting effect in percent, 0.5mcg/kg i.v. AT II [1, 5] [%] | Inhibiting effect in percent, 1mcg/kg i.v. AT II [1, 3] [%] | Inhibiting effect in percent, 1mcg/kg i.v. AT II [1, 4] [%] | Inhibiting effect in percent, 1mcg/kg i.v. AT II [1, 5] [%] | Inhibiting effect in percent, 2mcg/kg i.v. AT II [1, 3] [%] | Inhibiting effect in percent, 2mcg/kg i.v. AT II [1, 4] [%] | Inhibiting effect in percent, 2mcg/kg i.v. AT II [1, 5] [%] | duration of action in min. 0.1mg/kg i.v. [2] [min]
1 | Succinamoyl--Arg--Val--Tyr--Val--His--Pro--Phegly--OH [[Suc^1,Val^5 pgl^8] AT II] | 42 | 88 | 98 | 51 | 94 | 94 | 55 | 93 | 92 | 89 ± 22
2 | [1-sarcosine,5-valine, 8-alanine] angiotensin II [[Sar^1,Val^5 Ala^8] AT II] | 0 | 63 | 88 | 22 | 76 | 90 | 31 | 75 | 89 | 66 ± 21
